The target of the assay is T1, cytosolic kinase domain of KDR kinase (Homo sapiens, UniProt P35968).
T1 construct: The cytosolic kinase domain of KDR kinase was expressed as a 6His fusion protein in Sf9 insect cells; 6His; made in house; host or cells: Sf9 insect cells
The experiment in a line: KDR Assay (ELISA, phosphorylation of poly(Glu4;Tyr1)). Conditions: 3.3 µM ATP, 60 minutes at room temperature, 30 ng KDR kinase domain. The class given is biochemical. As for the experimental part:
The cytosolic kinase domain of KDR kinase was expressed as a 6His fusion protein in Sf9 insect cells. The KDR kinase domain fusion protein was purified over a Ni^++ chelating column. Ninety-six well ELISA plates were coated with 5 µg poly(Glu4;Tyr1) (Sigma Chemical Co., St Louis, MO) in 100 µl HEPES buffer (20 mM HEPES, pH 7.5, 150 mM NaCl, 0.02% Thimerosal) at 4° overnight. Before use, the plate was washed with HEPES, NaCl buffer and the plates were blocked with 1% BSA, 0.1% Tween 20 in HEPES, NaCl buffer.
Test compounds were serially diluted in 100% DMSO from 4 mM to 0.12 µM in half-log dilutions. These dilutions were further diluted twenty fold in H2O to obtain compound solutions in 5% DMSO. Following loading of the assay plate with 85 µl of assay buffer (20 mM HEPES, pH 7.5, 100 mM KCl, 10 mM MgCl2, 3 mM MnCl2, 0.05% glycerol, 0.005% Triton X-100, 1 mM -mercaptoethanol, with or without 3.3 µM ATP), 5 µl of the diluted compounds were added to a final assay volume of 100 µl. Final concentrations were between 10 µM, and 0.3 nM in 0.25% DMSO. The assay was initiated by the addition of 10µl (30 ng) of KDR kinase domain.
The assay was incubated with test compound or vehicle alone with gentle agitation at room temperature for 60 minutes. The wells were washed and phosphotyrosines (PY) were probed with an anti-phosphotyrosine (PY), mAb clone 4G10 (Upstate Biotechnology, Lake Placid, NY). PY/anti-PY complexes were detected with an anti-mouse IgG/HRP conjugate (Amersham International plc, Buckinghamshire, England). Phosphotyrosine was quantitated by incubating with 100 µl 3, 3', 5, 5' tetramethylbenzidine solution (Kirkegaard and Perry, TMB Microwell 1 Component peroxidase substrate). Color development was arrested by the addition of 100 µl 1% HCl-based stop solution (Kirkegaard and Perry, TMB I Component Stop Solution).
Optical densities were determined spectrophotometrically at 450 nm in a 96-well plate reader, SpectraMax 250 (Molecular Devices). Background (no ATP in assay) OD values were subtracted from all ODs and the percent inhibition was calculated according to the equation: % Inhibition =((OD(vehicle control) - OD(with compound)) X 100)/(OD(vehicle control) - OD(no ATP added)) [formula]
The IC50 values were determined with a least squares analysis program using compound concentration versus percent inhibition. Compounds that have IC50 < 100 nM in this assay include those of Examples 1, 2, 4, 5, 6, 7, 10, 11, 12, 13, 14, 15, 16 and 23. Compounds that have IC50 values between 100 nM and 1,000 nM include those of examples 8, 9 and 22. Those that have measured IC50 values > 1,000 nM include those of examples 3, 17, 18 and 21.

T1 sequence (P35968 834-1162 limits assumed): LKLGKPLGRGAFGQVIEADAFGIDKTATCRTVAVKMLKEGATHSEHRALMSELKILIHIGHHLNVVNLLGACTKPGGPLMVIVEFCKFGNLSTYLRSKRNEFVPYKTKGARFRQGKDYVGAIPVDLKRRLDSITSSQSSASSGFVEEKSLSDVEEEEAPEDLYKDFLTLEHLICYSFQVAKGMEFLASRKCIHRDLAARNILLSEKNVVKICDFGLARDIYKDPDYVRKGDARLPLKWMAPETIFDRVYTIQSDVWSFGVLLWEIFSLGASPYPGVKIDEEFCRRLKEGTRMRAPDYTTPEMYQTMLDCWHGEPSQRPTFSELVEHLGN

`CNC(=O)c1cc(Cc2nnc(Nc3ccc(Cl)cc3)c3ccccc23)ccn1` [Example 1, 4-[4-(4-Chlorophenylamino)phthalazin-1-ylmethyl]pyridin-2-yl carboxylic acid methylamide] returned a concentration for half-maximal inhibition (IC50) of less than 100 nM.

One may read the IC50 as the concentration at which inhibition is half-maximal. The low end stands for greater potency in that assay, the high end for weaker potency in that assay.

Values taken from patent publication EP1208096B1, “SUBSTITUTED PYRIDAZINES AND FUSED PYRIDAZINES WITH ANGIOGENESIS INHIBITING ACTIVITY” (Bayer Corporation, priority 1999, dated 2001).
